Assay results reported in paper PMC11785374, “Synergistic effect of inhibiting CHK2 and DNA replication on cancer cell growth” (eLife, 2025).

Key:
CHK2 = target: T1, CHK2 (Homo sapiens, UniProt O96017); experiment: radiometric in vitro kinase assay (Eurofins KinaseProfiler); also CETSA in MCF-7 cells; type: biochemical
T1 construct: gene CHEK2

AKT1/PKBα = AKT1/PKBα (Homo sapiens, UniProt P31749); experiment: radiometric in vitro kinase assay (Eurofins KinaseProfiler); type: biochemical
JNK3 = target: T2, JNK3 (Homo sapiens, UniProt P53779); experiment: as above; type: biochemical
T2 construct: gene MAPK10

Aurora-B = target: T3, Aurora-B (Homo sapiens, UniProt Q96GD4); experiment: as above; type: biochemical
T3 construct: gene AURKB

Aurora-A = target: T4, Aurora-A (Homo sapiens, UniProt O14965); experiment: as above; type: biochemical
T4 construct: gene AURKA
T4 sequence (O14965 1-403): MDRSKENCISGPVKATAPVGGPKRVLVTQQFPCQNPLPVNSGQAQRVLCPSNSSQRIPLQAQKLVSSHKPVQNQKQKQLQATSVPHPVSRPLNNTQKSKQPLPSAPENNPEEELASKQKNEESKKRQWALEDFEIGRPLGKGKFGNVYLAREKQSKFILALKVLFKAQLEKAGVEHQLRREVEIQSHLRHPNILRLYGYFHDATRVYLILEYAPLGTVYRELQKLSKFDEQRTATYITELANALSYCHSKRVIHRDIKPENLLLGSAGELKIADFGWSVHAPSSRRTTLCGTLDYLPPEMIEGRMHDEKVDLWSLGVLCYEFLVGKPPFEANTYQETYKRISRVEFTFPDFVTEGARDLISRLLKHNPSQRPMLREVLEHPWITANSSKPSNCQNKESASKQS

[1] = target: T5, POLD1 (catalytic subunit of DNA polymerase δ) (Homo sapiens, UniProt P28340); experiment: CETSA in MCF-7 cells ([…] BKC), western blot; type: cell-based
T5 sequence (P28340 1-1107): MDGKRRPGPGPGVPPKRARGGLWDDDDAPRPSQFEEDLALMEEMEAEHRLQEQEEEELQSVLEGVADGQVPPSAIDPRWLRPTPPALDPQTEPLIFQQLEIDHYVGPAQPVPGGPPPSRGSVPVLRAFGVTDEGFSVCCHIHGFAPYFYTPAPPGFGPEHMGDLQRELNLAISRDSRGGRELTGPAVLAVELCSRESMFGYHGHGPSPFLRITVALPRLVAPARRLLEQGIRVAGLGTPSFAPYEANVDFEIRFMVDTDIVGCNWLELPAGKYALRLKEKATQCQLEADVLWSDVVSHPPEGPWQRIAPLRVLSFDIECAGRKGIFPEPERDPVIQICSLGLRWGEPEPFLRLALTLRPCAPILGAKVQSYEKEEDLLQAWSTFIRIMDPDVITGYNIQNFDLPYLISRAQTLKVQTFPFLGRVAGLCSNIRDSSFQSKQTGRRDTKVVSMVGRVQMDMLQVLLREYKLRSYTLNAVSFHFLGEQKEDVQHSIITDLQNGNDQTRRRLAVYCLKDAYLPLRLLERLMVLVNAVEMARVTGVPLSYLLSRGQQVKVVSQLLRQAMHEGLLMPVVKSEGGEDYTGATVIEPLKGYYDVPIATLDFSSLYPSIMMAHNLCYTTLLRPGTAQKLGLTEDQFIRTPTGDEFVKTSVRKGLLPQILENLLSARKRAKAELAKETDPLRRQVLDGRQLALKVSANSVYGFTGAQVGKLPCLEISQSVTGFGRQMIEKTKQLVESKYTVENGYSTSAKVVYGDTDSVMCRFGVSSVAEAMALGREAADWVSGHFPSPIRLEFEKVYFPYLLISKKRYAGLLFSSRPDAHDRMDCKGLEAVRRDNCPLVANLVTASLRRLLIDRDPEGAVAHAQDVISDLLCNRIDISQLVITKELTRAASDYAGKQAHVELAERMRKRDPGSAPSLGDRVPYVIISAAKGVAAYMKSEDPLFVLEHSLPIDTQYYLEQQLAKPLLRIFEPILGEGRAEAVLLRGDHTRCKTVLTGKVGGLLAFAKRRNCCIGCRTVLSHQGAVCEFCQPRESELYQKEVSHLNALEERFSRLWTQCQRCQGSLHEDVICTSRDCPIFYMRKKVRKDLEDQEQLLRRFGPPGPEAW

[2] = target: T6, POLD1 (p125, catalytic subunit of Polδ) (Xenopus laevis, UniProt Q642R8); experiment: CETSA in Xenopus egg extracts ([…] BKC), western blot; type: cell-free
T6 construct: gene pold1.L
T6 sequence (Q642R8 1-1109): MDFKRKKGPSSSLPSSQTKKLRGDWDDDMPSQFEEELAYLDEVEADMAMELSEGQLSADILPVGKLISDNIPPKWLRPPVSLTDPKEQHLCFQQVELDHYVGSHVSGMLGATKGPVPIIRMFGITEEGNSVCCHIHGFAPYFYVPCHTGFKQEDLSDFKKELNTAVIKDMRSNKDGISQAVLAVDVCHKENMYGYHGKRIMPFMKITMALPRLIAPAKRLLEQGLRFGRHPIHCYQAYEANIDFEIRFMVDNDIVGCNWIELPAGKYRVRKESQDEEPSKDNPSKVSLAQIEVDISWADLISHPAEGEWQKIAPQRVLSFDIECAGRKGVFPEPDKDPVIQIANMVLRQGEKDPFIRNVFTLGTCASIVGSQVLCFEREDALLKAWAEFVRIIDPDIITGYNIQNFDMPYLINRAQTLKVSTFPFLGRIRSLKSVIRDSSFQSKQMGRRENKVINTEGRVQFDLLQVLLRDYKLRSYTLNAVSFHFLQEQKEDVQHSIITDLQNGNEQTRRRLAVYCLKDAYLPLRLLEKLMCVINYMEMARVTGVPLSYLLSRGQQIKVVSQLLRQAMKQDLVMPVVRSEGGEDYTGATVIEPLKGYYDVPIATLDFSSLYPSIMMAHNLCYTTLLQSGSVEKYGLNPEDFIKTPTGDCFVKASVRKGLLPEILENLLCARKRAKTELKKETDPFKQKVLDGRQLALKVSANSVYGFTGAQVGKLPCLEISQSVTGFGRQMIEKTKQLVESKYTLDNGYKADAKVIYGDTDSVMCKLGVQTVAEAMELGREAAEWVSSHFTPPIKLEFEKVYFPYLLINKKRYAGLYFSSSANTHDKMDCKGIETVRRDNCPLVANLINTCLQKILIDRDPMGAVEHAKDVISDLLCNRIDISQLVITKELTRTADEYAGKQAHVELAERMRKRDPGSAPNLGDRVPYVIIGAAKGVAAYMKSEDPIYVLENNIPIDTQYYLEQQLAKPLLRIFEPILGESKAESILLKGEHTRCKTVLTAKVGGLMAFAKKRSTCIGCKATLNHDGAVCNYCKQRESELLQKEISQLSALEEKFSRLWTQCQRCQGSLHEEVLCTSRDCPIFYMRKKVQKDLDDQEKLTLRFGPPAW

[3] = target: POLE (catalytic subunit of DNA polymerase ε) (Homo sapiens, UniProt Q07864); experiment: CETSA in MCF-7 cells ([…] BKC), western blot; type: cell-based
Chain of POLE (catalytic subunit of DNA polymerase ε) (Q07864 whole entry): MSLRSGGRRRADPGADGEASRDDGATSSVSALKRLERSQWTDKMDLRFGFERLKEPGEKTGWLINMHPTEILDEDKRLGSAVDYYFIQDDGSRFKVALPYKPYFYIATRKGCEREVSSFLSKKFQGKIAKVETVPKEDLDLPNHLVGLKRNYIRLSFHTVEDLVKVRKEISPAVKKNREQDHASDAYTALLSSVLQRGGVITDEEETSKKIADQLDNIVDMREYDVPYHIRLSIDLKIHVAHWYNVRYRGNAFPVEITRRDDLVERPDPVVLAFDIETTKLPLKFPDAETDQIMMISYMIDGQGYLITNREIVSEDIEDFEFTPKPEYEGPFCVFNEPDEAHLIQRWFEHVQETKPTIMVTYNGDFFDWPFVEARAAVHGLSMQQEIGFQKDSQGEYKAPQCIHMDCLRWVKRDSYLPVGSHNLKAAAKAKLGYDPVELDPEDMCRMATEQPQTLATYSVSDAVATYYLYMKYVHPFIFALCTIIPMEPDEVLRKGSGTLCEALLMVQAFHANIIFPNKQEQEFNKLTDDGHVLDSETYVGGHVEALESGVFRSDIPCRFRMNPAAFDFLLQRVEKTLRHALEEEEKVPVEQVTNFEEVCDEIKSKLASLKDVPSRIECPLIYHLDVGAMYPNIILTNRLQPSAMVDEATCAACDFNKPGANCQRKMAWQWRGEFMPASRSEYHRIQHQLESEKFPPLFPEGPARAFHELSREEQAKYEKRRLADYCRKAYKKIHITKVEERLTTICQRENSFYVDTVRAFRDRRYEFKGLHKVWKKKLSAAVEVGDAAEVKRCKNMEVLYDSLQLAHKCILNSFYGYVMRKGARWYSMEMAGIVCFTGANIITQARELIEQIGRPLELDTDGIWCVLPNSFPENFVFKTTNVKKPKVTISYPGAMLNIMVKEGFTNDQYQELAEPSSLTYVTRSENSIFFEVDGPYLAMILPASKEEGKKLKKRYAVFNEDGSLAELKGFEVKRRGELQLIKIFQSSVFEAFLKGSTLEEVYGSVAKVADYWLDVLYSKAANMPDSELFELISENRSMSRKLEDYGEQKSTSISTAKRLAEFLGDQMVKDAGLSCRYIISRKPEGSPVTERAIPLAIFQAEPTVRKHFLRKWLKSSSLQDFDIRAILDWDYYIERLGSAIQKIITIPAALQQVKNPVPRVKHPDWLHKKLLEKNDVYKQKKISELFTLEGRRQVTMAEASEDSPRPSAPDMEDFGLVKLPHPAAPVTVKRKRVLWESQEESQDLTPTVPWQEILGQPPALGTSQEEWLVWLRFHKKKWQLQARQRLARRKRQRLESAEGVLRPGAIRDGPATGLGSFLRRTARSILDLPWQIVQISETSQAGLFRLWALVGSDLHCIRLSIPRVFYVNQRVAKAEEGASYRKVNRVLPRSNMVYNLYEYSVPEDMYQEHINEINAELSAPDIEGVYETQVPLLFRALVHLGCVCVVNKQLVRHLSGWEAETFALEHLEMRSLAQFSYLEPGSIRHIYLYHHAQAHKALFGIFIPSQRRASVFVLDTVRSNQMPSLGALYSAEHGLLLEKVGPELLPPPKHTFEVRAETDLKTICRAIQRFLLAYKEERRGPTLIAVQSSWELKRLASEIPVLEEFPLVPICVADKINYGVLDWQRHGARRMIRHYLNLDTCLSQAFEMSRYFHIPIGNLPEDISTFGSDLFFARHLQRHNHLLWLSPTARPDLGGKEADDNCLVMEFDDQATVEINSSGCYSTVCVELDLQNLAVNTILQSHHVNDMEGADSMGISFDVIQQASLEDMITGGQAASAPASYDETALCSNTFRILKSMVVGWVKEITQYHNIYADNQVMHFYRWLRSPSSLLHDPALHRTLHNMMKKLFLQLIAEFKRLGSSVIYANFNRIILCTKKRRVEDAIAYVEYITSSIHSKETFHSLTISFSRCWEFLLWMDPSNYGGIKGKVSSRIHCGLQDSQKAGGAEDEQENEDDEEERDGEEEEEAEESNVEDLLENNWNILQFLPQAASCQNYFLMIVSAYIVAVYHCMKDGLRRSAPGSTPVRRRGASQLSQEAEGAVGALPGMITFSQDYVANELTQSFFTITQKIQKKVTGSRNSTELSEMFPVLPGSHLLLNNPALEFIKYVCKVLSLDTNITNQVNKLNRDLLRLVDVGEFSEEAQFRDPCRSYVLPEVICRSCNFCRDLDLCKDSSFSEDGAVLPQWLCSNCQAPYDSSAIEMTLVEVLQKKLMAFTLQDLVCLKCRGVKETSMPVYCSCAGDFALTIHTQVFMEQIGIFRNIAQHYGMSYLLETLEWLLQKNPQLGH

T3 sequence (Q96GD4 whole entry): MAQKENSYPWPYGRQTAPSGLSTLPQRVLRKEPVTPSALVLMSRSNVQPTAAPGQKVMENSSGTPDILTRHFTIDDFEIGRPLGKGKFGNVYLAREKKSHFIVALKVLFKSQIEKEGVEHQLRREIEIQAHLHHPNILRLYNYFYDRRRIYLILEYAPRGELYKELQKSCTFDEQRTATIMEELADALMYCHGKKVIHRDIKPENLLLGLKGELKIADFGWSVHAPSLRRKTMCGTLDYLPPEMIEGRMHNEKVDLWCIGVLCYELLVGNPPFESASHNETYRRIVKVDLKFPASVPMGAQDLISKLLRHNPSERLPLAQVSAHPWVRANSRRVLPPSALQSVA
T2 sequence (P53779 whole entry): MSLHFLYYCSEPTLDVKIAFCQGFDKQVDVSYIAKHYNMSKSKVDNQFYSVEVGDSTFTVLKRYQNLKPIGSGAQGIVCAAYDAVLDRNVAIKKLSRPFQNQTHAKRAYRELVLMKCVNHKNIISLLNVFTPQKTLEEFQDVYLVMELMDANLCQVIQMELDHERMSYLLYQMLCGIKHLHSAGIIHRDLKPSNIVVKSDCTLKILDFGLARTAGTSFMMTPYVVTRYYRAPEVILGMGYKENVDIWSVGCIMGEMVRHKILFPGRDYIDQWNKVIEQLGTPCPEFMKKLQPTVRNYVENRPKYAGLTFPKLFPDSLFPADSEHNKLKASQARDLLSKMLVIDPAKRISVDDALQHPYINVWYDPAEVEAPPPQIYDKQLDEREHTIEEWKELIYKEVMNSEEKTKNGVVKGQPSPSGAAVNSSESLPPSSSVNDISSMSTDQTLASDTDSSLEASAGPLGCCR
T1 sequence (O96017 whole entry): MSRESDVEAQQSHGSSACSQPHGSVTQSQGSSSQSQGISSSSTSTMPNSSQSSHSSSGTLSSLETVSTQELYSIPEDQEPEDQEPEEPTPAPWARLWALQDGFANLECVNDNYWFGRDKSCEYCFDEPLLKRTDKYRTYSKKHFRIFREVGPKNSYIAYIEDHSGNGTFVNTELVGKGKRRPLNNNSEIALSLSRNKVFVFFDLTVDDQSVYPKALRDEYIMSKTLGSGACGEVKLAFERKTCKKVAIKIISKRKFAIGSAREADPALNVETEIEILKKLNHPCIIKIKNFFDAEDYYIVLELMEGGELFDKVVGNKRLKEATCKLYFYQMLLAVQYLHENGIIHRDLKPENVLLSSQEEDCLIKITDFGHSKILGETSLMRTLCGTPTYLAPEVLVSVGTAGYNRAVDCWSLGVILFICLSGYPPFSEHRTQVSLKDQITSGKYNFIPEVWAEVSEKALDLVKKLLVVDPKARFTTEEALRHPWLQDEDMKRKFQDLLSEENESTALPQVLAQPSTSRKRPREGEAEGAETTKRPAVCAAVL
Chain of AKT1/PKBα (P31749 whole entry): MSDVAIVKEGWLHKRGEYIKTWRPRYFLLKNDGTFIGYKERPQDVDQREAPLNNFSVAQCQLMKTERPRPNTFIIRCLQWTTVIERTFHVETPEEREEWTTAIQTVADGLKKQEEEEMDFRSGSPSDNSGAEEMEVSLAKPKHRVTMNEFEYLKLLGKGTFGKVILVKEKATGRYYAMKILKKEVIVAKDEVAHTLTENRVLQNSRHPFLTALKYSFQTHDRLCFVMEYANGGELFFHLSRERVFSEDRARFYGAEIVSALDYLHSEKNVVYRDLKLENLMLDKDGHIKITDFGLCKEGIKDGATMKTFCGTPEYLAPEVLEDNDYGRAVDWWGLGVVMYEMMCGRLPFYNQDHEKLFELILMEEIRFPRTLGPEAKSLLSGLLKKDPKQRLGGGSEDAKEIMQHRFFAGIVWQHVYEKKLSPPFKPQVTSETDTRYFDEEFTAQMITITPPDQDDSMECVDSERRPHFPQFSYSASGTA

Row | Structure (SMILES) | IC50 (CHK2) [µM] | IC50 (AKT1/PKBα) [µM] | IC50 (JNK3) [µM] | IC50 (Aurora-B) [µM] | IC50 (Aurora-A) [µM] | CETSA in MCF-7 cells (40 μM BKC), western blot [1] | CETSA in Xenopus egg extracts (40 μM BKC), western blot [2] | CETSA in MCF-7 cells (40 μM BKC), western blot [3]
1 | CC(C)=CCc1c(O)ccc(C(=O)/C=C/c2ccc(O)cc2)c1O [IBC, Isobavachalcone] | 3.5 | 56.7 | 16.4 | 11.2 | 11.2 |  |  | 
2 | C=C[C@@](C)(/C=C/c1ccc(O)cc1)CCC=C(C)C [BKC, Bakuchiol] |  |  |  |  |  | BKC interacts with the catalytic subunits of Polδ and Polε in MCF-7 cells | BKC specifically stabilize the catalytic subunit POLD1 of Polδ, but not that of the accessory subunit POLD3 in Xenopus | BKC interacts with the catalytic subunits of Polδ and Polε in MCF-7 cells
